Test results taken from ChEMBL document CHEMBL3244250, “Bisamidines of 2,6-diaminoanthraquinone as antiamebic agents” (J Med Chem, 1978).
Active and inactive are the calls of the source. The calls are words filed in the database; no cut-off is given here.

Assays:
Entamoeba histolytica [1] = experiment: Antimicrobial activity against Entamoeba histolytica NIH 200-mu cecal forms infected in Wistar albino rat assessed as cure rate administered qd for 5 days by microscopic analysis; format: functional; settings: for minimal effective dose: 120 h, read-out: MED
Entamoeba histolytica [2] = experiment: Antimicrobial activity against Entamoeba histolytica NIH 200-mu hepatic forms infected in golden hamster assessed as survival rate administered qd for 5 days measured up to 14 days by microscopic analysis; format: functional; settings: for minimal effective dose: read-out: MED
Rattus norvegicus [3] = experiment: Toxicity in Wistar albino rat assessed as general listlessness up to 150 mg/kg administered qd for 5 days; format: organism-based; design: dose 150 mg/kg; settings: in vivo, 120 h
Rattus norvegicus [4] = experiment: Toxicity in Wistar albino rat assessed as reduction in water and food intake up to 150 mg/kg administered qd for 5 days; format: organism-based; design: dose 150 mg/kg; settings: in vivo, 120 h
Syrian golden hamster [5] = experiment: Toxicity in golden hamster assessed as general listlessness up to 150 mg/kg administered qd for 5 days; format: organism-based, Mesocricetus auratus; design: dose 150 mg/kg; settings: in vivo, 120 h
Syrian golden hamster [6] = experiment: Toxicity in golden hamster assessed as reduction in water and food intake up to 150 mg/kg administered qd for 5 days; format: organism-based, Mesocricetus auratus; design: dose 150 mg/kg; settings: in vivo, 120 h
Rattus norvegicus [7] = experiment: Toxicity in Wistar albino rat assessed as general listlessness administered qd for 5 days; format: organism-based; settings: in vivo, 120 h
Rattus norvegicus [8] = experiment: Toxicity in Wistar albino rat assessed as reduction in water and food intake administered qd for 5 days; format: organism-based; settings: in vivo, 120 h
Syrian golden hamster [9] = experiment: Toxicity in golden hamster assessed as general listlessness administered qd for 5 days; format: organism-based, Mesocricetus auratus; settings: in vivo, 120 h
Syrian golden hamster [10] = experiment: Toxicity in golden hamster assessed as reduction in water and food intake administered qd for 5 days; format: organism-based, Mesocricetus auratus; settings: in vivo, 120 h
Salmonella typhimurium = experiment: Mutagenic activity in Salmonella typhimurium by Ames test; format: toxicity, organism-based; settings: salmonella enterica subsp. enterica serovar typhimurium

SMILES | Activity (Entamoeba histolytica [2]) | Activity (Rattus norvegicus [3]) | Activity (Rattus norvegicus [4]) | Activity (Syrian golden hamster [5]) | Activity (Syrian golden hamster [6]) | minimal effective dose (Entamoeba histolytica [1]) | minimal effective dose (Entamoeba histolytica [2]) | other results
CCN(C(C)=O)/C(C)=N/c1ccc2c(c1)C(=O)c1ccc(/N=C(\C)N(CC)C(C)=O)cc1C2=O | inactive | Non-toxic | Non-toxic | Non-toxic | Non-toxic | – | – | Activity (Entamoeba histolytica [1]): inactive
CC(C)N(/C=N/c1ccc2c(c1)C(=O)c1ccc(/N=C/N(C(C)C)C(C)C)cc1C2=O)C(C)C | – | – | – | – | – | 20 mg/kg | 100 mg/kg | Activity (Rattus norvegicus [7]): Toxic; Activity (Rattus norvegicus [8]): Toxic; Activity (Syrian golden hamster [9]): Toxic; Activity (Syrian golden hamster [10]): Toxic
CN(C)/C=N\c1ccc(/N=C\N(C)C)c2c1C(=O)c1ccccc1C2=O | inactive | – | – | – | – | – | – | Activity (Entamoeba histolytica [1]): inactive
O=C1c2ccc(/N=C/N3CCCCC3)cc2C(=O)c2ccc(/N=C/N3CCCCC3)cc21 | – | – | – | – | – | 20 mg/kg | 100 mg/kg | Activity (Rattus norvegicus [7]): Toxic; Activity (Rattus norvegicus [8]): Toxic; Activity (Syrian golden hamster [9]): Toxic; Activity (Syrian golden hamster [10]): Toxic
O=C1c2ccc(N/C3=N/CCCCCC3)cc2C(=O)c2ccc(N/C3=N/CCCCCC3)cc21 | inactive | Non-toxic | Non-toxic | Non-toxic | Non-toxic | 20 mg/kg | – | –
C/C(=N\c1ccc2c(c1)C(=O)c1ccc(/N=C(\C)N(C)C)cc1C2=O)N(C)C | – | Non-toxic | Non-toxic | Non-toxic | Non-toxic | 5 mg/kg | 2.5 mg/kg | Activity (Salmonella typhimurium): Non-toxic
CN/C(C)=N/c1ccc2c(c1)C(=O)c1ccc(/N=C(\C)NC)cc1C2=O | inactive | Non-toxic | Non-toxic | Non-toxic | Non-toxic | 10 mg/kg | – | –
CCN(CC)/C(=N/c1ccc2c(c1)C(=O)c1ccc(/N=C(\C3CC3)N(CC)CC)cc1C2=O)C1CC1 | inactive | – | – | – | – | 20 mg/kg | – | –
CN(C)/C(=N/c1ccc2c(c1)C(=O)c1ccc(/N=C(\C3CCC3)N(C)C)cc1C2=O)C1CCC1 | – | – | – | – | – | 20 mg/kg | 50 mg/kg | Activity (Salmonella typhimurium): Non-toxic
C/C(N)=N\c1ccc2c(c1)C(=O)c1ccc(/N=C(\C)N)cc1C2=O | inactive | Non-toxic | Non-toxic | Non-toxic | Non-toxic | 10 mg/kg | – | –
C/C(=N\c1ccc2c(c1)C(=O)c1ccc(/N=C(\C)N3CCCCC3)cc1C2=O)N1CCCCC1 | – | Non-toxic | Non-toxic | Non-toxic | Non-toxic | 50 mg/kg | 100 mg/kg | –
CCN(CC)/C(=N/c1ccc2c(c1)C(=O)c1ccc(/N=C(/N(CC)CC)C(C)(C)C)cc1C2=O)C(C)(C)C | – | – | – | – | – | 20 mg/kg | 50 mg/kg | –
Cc1ncc([N+](=O)[O-])n1CCO [METRONIDAZOLE] | – | – | – | – | – | 10 mg/kg | 10 mg/kg | –
O=[N+]([O-])c1cncn1CCN1CCOCC1 [NIMORAZOLE] | – | – | – | – | – | 20 mg/kg | 100 mg/kg | –
CCCCCCCCN(C)/C=N/c1ccc2c(c1)C(=O)c1ccc(/N=C/N(C)CCCCCCCC)cc1C2=O | inactive | – | – | – | – | 50 mg/kg | – | Activity (Rattus norvegicus [7]): Toxic; Activity (Rattus norvegicus [8]): Toxic; Activity (Syrian golden hamster [9]): Toxic; Activity (Syrian golden hamster [10]): Toxic
CN(C)/C=N/c1ccc2c(c1)C(=O)c1ccc(/N=C/N(C)C)cc1C2=O | – | – | – | – | – | 20 mg/kg | 10 mg/kg | Activity (Rattus norvegicus [7]): Toxic; Activity (Rattus norvegicus [8]): Toxic; Activity (Syrian golden hamster [9]): Toxic; Activity (Syrian golden hamster [10]): Toxic
CCCCN(C)/C(CC)=N/c1ccc2c(c1)C(=O)c1ccc(/N=C(\CC)N(C)CCCC)cc1C2=O | – | Non-toxic | Non-toxic | Non-toxic | Non-toxic | 20 mg/kg | 50 mg/kg | –

SMILES | Activity (Entamoeba histolytica [2]) | Activity (Rattus norvegicus [3]) | Activity (Rattus norvegicus [4]) | Activity (Syrian golden hamster [5]) | Activity (Syrian golden hamster [6]) | minimal effective dose (Entamoeba histolytica [1]) | minimal effective dose (Entamoeba histolytica [2]) | other results
O=C1c2ccc(/N=C(\c3ccccc3)N3CCCCC3)cc2C(=O)c2ccc(/N=C(\c3ccccc3)N3CCCCC3)cc21 | inactive | – | – | – | – | 10 mg/kg | – | –
CN(C)/C=N/c1ccc2c(c1)C(=O)c1ccccc1C2=O | inactive | – | – | – | – | – | – | Activity (Entamoeba histolytica [1]): inactive; Activity (Rattus norvegicus [7]): Toxic; Activity (Rattus norvegicus [8]): Toxic; Activity (Syrian golden hamster [9]): Toxic; Activity (Syrian golden hamster [10]): Toxic
CCN(CC)/C(C)=N/c1ccc2c(c1)C(=O)c1ccc(/N=C(\C)N(CC)CC)cc1C2=O | – | Non-toxic | Non-toxic | Non-toxic | Non-toxic | 10 mg/kg | 2.5 mg/kg | Activity (Salmonella typhimurium): Non-toxic
CC/C(=N\c1ccc2c(c1)C(=O)c1ccc(/N=C(\CC)N3CCCCC3)cc1C2=O)N1CCCCC1 | inactive | Non-toxic | Non-toxic | Non-toxic | Non-toxic | 50 mg/kg | – | –
CN(C)/C(=N/c1ccc2c(c1)C(=O)c1ccc(/N=C(\C3CC3)N(C)C)cc1C2=O)C1CC1 | – | – | – | – | – | 10 mg/kg | 50 mg/kg | Activity (Salmonella typhimurium): Non-toxic
CCN/C(C)=N/c1ccc2c(c1)C(=O)c1ccc(/N=C(\C)NCC)cc1C2=O | inactive | Non-toxic | Non-toxic | Non-toxic | Non-toxic | 10 mg/kg | – | –
CCS(=O)(=O)CCn1c([N+](=O)[O-])cnc1C [TINIDAZOLE] | – | – | – | – | – | 5 mg/kg | 25 mg/kg | –
CC/C(=N\c1ccc2c(c1)C(=O)c1ccc(/N=C(\CC)N(C)C)cc1C2=O)N(C)C | – | Non-toxic | Non-toxic | Non-toxic | Non-toxic | 10 mg/kg | 2.5 mg/kg | –
C/C(=N/c1cccc2c1C(=O)c1cccc(/N=C(/C)N(C)C)c1C2=O)N(C)C | inactive | – | – | – | – | – | – | Activity (Entamoeba histolytica [1]): inactive
CN(C)/C=N\c1cccc2c1C(=O)c1cccc(/N=C\N(C)C)c1C2=O | inactive | – | – | – | – | – | – | Activity (Entamoeba histolytica [1]): inactive
CC/C(N)=N\c1ccc2c(c1)C(=O)c1ccc(/N=C(/N)CC)cc1C2=O | inactive | Non-toxic | Non-toxic | Non-toxic | Non-toxic | – | – | Activity (Entamoeba histolytica [1]): inactive
CC/C(=N\c1ccc2c(c1)C(=O)c1ccc(/N=C(\CC)N3CCN(C)CC3)cc1C2=O)N1CCN(C)CC1 | inactive | Non-toxic | Non-toxic | Non-toxic | Non-toxic | 20 mg/kg | – | –
CCN(CC)/C(C)=N\c1ccc(/N=C(/C)N(CC)CC)c2c1C(=O)c1ccccc1C2=O | inactive | – | – | – | – | – | – | Activity (Entamoeba histolytica [1]): inactive
CN(C)/C(=N/c1ccc2c(c1)C(=O)c1ccc(/N=C(\c3ccc(Cl)cc3)N(C)C)cc1C2=O)c1ccc(Cl)cc1 | – | – | – | – | – | 20 mg/kg | 50 mg/kg | Activity (Salmonella typhimurium): Non-toxic
CC(C)C/C(=N\c1ccc2c(c1)C(=O)c1ccc(/N=C(\CC(C)C)N(C)C)cc1C2=O)N(C)C | – | – | – | – | – | 20 mg/kg | 50 mg/kg | –
CCC/C(=N\c1ccc2c(c1)C(=O)c1ccc(/N=C(\CCC)N(C)C)cc1C2=O)N(C)C | – | – | – | – | – | 20 mg/kg | 50 mg/kg | –
